In assay [1] the test system is compound 48/80-induced lethality. In words: Protection of rats from compound 48/80-induced lethality. The class given is in vivo, rats of an inbred Wistar strain. The following applies: Rattus norvegicus, 4 h, read-out: Compound 48/80 lethality test in rats ED50, s.c. or p.o. 1 h before compound 48/80 0.5 mg/kg i.v.; protection of 50% of animals, survival after 4 hours. The procedure, abridged:
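Male inbred Wistar rats (240-260 g), starved overnight, dosed subcutaneously or orally with compound or 0.9% NaCl before compound 48/80 challenge. Survival at 4 hours counted as protection. ED50 in mg/kg is the dose protecting 50% of animals from lethality.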

A further assay deals with effects of serotonin. In words: Antagonistic activity on the effects of serotonin in the gastric lesion test (lesions induced by compound 48/80). It is filed as in vivo, rats of a Wistar inbred strain. Conditions: Rattus norvegicus, po, read-out: gastric lesion test ED50. The procedure: Antagonistic activity on the effects of serotonin in the gastric lesion test.
The shock, followed by dead, can be avoided if the rats are pretreated with a classical H 1 antagonist.
Male rats of a Wistar inbred strain, weighing 220-250 g, were starved overnight, water being available ad libitum. The test compounds were administered orally as a solution or as a suspension in aqueous medium. A control rat and a "blank" rat received the test compound. One hour later 5-[4-(diphenylmethyl)1-piperazinylmethyl]-1-methyl-1H-benzimidazole-2-methanol was administered subcutaneously to all rats at the dose of 2.5 mg/kg. […] Four hours after the intravenous injection of compound 48/80, the rats were decapitated and the stomachs were removed. Subsequently the stomachs were inspected for distension and contents (blood, fluid, food) and thoroughly rinsed. The macroscopic lesions were scored from 0 to +++, 0 corresponding to complete absence of visible lesions and the highest score corresponding to reddish rough patches covering more than half the glandular area.
The second column of tables 1-4 show for a number of compounds of formula (I) the doses (in mg/kg body weight) at which the distension of the stomach as well as the lesions in the glandular area of the stomach are completely absent in 50% of the test rats (ED50 -value).

The mark [2] stands for this setting: compound 48/80 1 mg/kg i.v., distension and lesions of stomach completely absent in 50% of rats.

Where two headings read alike, the source gives them in different places.

As for `Fc1ccc(Cn2c(CC3CCN(CCN4CCOCC4)CC3)nc3ccccc32)cc1` [Compound 131], the ED50 is 0.02 mg/kg in assay [1] and 0.16 mg/kg in the assay on effects of serotonin (setting [2]).
Take `Oc1ccc(CCN2CCC(Cc3nc4ccccc4n3Cc3ccc(F)cc3)CC2)cc1` [Compound 504, 4-[2-[4-[[1-[(4-fluorophenyl)methyl]-1H-benzimidazol-2-yl]methyl]-1-piperidinyl]ethyl]phenol]: the ED50 in assay [1] worked out at 0.08 mg/kg; in the assay on effects of serotonin (setting [2]) it was 0.63 mg/kg.
Consider `N#CCN1CCC(Cc2nc3ccccc3n2Cc2ccc(F)cc2)CC1` [Compound 283], for which the ED50 in assay [1] worked out at 0.04 mg/kg; in the assay on effects of serotonin (setting [2]), 0.63 mg/kg.
In the same order, the values of `c1cnc(OCCN2CCC(Cc3nc4ccccc4n3Cc3ccco3)CC2)nc1` [Compound 392, 1-(2-furanylmethyl)-2-[[1-[2-(2-pyrimidinyloxy)ethyl]-4-piperidinyl]methyl]-1H-benzimidazole] are 0.02 mg/kg and 0.63 mg/kg.
On to `COc1ccc(CCN2CCC(Cc3nc4ccc(O)cc4n3Cc3ccc(F)cc3)CC2)cc1` [Compound 276], for which the ED50 in assay [1] was 0.04 mg/kg; with effects of serotonin (setting [2]), 0.31 mg/kg.
Turning to `Fc1ccc(Cn2c(CC3CCN(CCNc4nc5cnccc5s4)CC3)nc3ccccc32)cc1` [Compound 332, N-[2-[4-[[1-[(4-fluorophenyl)methyl]-1H-benzimidazol-2-yl]methyl]-1-piperidinyl]ethyl]thiazolo[4,5-c]pyridin-2-amine], the ED50 (in assay [1]; in the assay with effects of serotonin) was 0.08 mg/kg each time.
`Nc1ccccc1C(=O)NCCN1CCC(Cc2nc3ccccc3n2Cc2ccc(F)cc2)CC1` [Compound 468, 2-amino-N-[2-[4-[[1-[(4-fluorophenyl)methyl]-1H-benzimidazol-2-yl]methyl]-1-piperidinyl]ethyl]benzamide]: the ED50 in assay [1] is 0.02 mg/kg; in the assay on effects of serotonin (setting [2]) it was 0.63 mg/kg.
In the same order, the values of `Cc1nc2n(c(=O)c1CCN1CCC(Cc3nc4ccccc4n3Cc3ccc(F)cc3)CC1)CCCC2` [Compound 498, 3-[2-[4-[[1-[(4-fluorophenyl)methyl]-1H-benzimidazol-2-yl]methyl]-1-piperidinyl]ethyl]-6,7,8,9-tetrahydro-2-methyl-4H-pyrido[1,2-a]pyrimidin-4-one] are 0.08 mg/kg and 0.16 mg/kg.
In the same order, the values of `Cc1nc2ccccn2c(=O)c1CCN1CCC(Cc2nc3cccnc3n2Cc2ccco2)CC1` [Compound 180] are 0.01 mg/kg and 0.31 mg/kg.
With `S=C=NCCN1CCC(Cc2nc3ccccc3n2Cc2ccco2)CC1` [Compound 399], the values for the ED50 (in assay [1]; in the assay on effects of serotonin) were 0.02 mg/kg and 0.04 mg/kg, respectively.
For `O=C1OCCN1CCN1CCC(Cc2nc3ccccc3n2Cc2ccc(F)cc2)CC1` [Compound 385, 3-[2-[4-[[1-[(4-fluorophenyl)methyl]-1H-benzimidazol-2-yl]methyl]-1-piperidinyl]ethyl]2-oxazolidinone], the ED50 amounted to 0.01 mg/kg in assay [1] and 0.08 mg/kg in the assay with effects of serotonin.
As for `O=c1c2ccccc2[nH]c(=S)n1CCN1CCC(Cc2nc3ccccc3n2Cc2ccco2)CC1` [Compound 461, 3-[2-[4-[[1-(2-furanylmethyl)-1H-benzimidazol-2-yl]methyl]-1-piperidinyl]ethyl]-2,3-dihydro-2-thioxo-4(1H)-quinazolinone], the ED50 (in assay [1]; in the assay with effects of serotonin) was 0.08 mg/kg throughout.
`Cc1nc2n(c(=O)c1CCN1CCC(Cc3nc4ccccc4n3Cc3cscn3)CC1)CCCC2` [Compound 262]: the ED50 in assay [1] was determined as 0.04 mg/kg; with effects of serotonin (setting [2]) it was 0.16 mg/kg.
With `Fc1ccc(Cn2c(CC3CCN(CCc4ccccn4)CC3)nc3ccccc32)cc1` [Compound 103, 1-[(4-fluorophenyl)methyl]-2-[[1-[2-(2-pyridinyl)ethyl]-4-piperidinyl]-methyl]-1H-benzimidazole], the ED50 in assay [1] worked out at 0.005 mg/kg; in the assay with effects of serotonin (setting [2]) it was 0.16 mg/kg.
For `Fc1ccc(Cn2c(CC3CCN(Cc4ccccc4)CC3)nc3ccccc32)cc1` [Compound 34, 1-[(4-fluorophenyl)methyl]-2-[[1-(phenylmethyl)-4-piperidinyl]methyl]-1H-benzimidazole], the ED50 came out at 0.04 mg/kg in assay [1] and 0.63 mg/kg in the assay on effects of serotonin (setting [2]).
Consider `CNc1ccccc1C(=O)NCCN1CCC(Cc2nc3ccccc3n2Cc2ccc(F)cc2)CC1` [Compound 467, N-[2-[4-[[1-[(4-fluorophenyl)methyl]-1H-benzimidazol-2-yl]methyl]-1-piperidinyl]ethyl]-2-(methylamino)benzamide], for which the values for the ED50 (in assay [1]; in the assay with effects of serotonin) were 0.04 mg/kg and 0.08 mg/kg, respectively.
Regarding `COc1ccc(CCN2CCC(Cc3nc4ccc(OC)cc4n3Cc3ccc(F)cc3)CC2)cc1` [Compound 273], the ED50 turned out to be 0.01 mg/kg in assay [1] and 0.31 mg/kg in the assay on effects of serotonin (setting [2]).
Regarding `O=C(NCCN1CCC(Cc2nc3ccccc3n2Cc2ccc(F)cc2)CC1)c1cccs1` [Compound 443, N-[2-[4-[[1-[(4-fluorophenyl)methyl]-1H-benzimidazol-2-yl]methyl]-1-piperidinyl]ethyl]-2-thiophenecarboxamide], the ED50 in assay [1] stood at 0.02 mg/kg; in the assay on effects of serotonin (setting [2]), 0.16 mg/kg.
`Cc1nc2ccccn2c(=O)c1CCN1CCC(Cc2nc3cccnc3n2Cc2ccc(F)cc2)CC1` [Compound 177]: the ED50 turned out to be 0.04 mg/kg in assay [1] and 0.31 mg/kg in the assay on effects of serotonin (setting [2]).
With `Cc1nc2ccccn2c(=O)c1CCN1CCC(Sc2nc3ccccc3n2Cc2ccc(F)cc2)CC1` [Compound 244, 3-[2-[4-[[1-[(4-fluorophenyl)methyl]-1H-benzimidazol-2-yl]thio]-1-piperidinyl]-ethyl]-2-methyl-4H-pyrido[1,2-a]pyrimidin-4-one], the ED50 was determined as 0.16 mg/kg in assay [1] and 0.31 mg/kg in the assay on effects of serotonin (setting [2]).
On to `Cc1nc2scc(C)n2c(=O)c1CCN1CCC(Cc2nc3ccccc3n2Cc2ccc(F)cc2)CC1` [Compound 219], for which the figures for the ED50 (in assay [1]; in the assay on effects of serotonin (setting [2])) were 0.08 mg/kg and 0.63 mg/kg, respectively.
The corresponding values for `Cc1nc2ccccn2c(=O)c1CCN1CCC(Cc2nc3ncccc3n2Cc2ccc(F)cc2)CC1` [Compound 272] are 0.08 mg/kg and 0.63 mg/kg.
Turning to `CNC(=S)NCCN1CCC(Cc2nc3ccccc3n2Cc2ccc(F)cc2)CC1` [Compound 428, N-[2-[4-[[1-[(4-fluorophenyl)methyl]-1H-benzimidazol-2-yl]methyl]-1-piperidinyl]ethyl]-N'-methylthiourea], the results for the ED50 (in assay [1]; with effects of serotonin (setting [2])) were 0.04 mg/kg and 0.01 mg/kg, respectively.
With `CCOC(=O)NCCN1CCC(Sc2nc3ccccc3n2Cc2ccc(F)cc2)CC1` [Compound 243, ethyl [2-[4-[[1-[(4-fluorophenyl)methyl]-1H-benzimidazol-2-yl]-thio]-1-piperidinyl)ethyl]carbamate], the ED50 in assay [1] was 0.04 mg/kg.
On the same count and under the same terms, under `COc1ccc(CCN2CCC(Cc3nc4ccccc4n3Cc3ccccc3F)CC2)cc1` [Compound 515, 1-[(2-fluorophenyl)methyl]-2-[[1-[2-(4-methoxyphenyl)ethyl]-4-piperidinyl]-methyl]-1H-benzimidazole] stands 0.16 mg/kg.
Take `COc1ccc(CCN2CCC(Cc3nc4ccncc4n3Cc3ccc(F)cc3)CC2)cc1` [Compound 204, 3-[(4-fluorophenyl)methyl]-2-[[1-[2-(4-methoxyphenyl)ethyl]-4-piperidinyl]methyl]-3H-imidazo-[4,5-c]pyridine]: the ED50 in assay [1] amounted to 0.08 mg/kg.
`Fc1ccc(Cn2c(CC3CCN(CCc4cccs4)CC3)nc3cccnc32)cc1` [Compound 117]: the ED50 in assay [1] was determined as 0.01 mg/kg.
Consider `Fc1ccc(Cn2c(CC3CCN(Cc4cn5cccnc5n4)CC3)nc3ccccc32)cc1` [Compound 183], for which the ED50 in assay [1] turned out to be 0.01 mg/kg.
For the compound `Fc1ccc(Cn2c(OC3CCN(CCNc4nccs4)CC3)nc3ccccc32)cc1` [Compound 355], in assay [1], the ED50 was found to be 0.08 mg/kg.
Consider `Fc1ccc(Cn2c(CC3CCN(CCNc4cnccn4)CC3)nc3ccccc32)cc1` [Compound 368], for which, in assay [1], the ED50 is 0.01 mg/kg.
On the same count and under the same terms, the result for `COc1ccc(CCN2CCC(Cc3nc4ccccc4n3Cc3cnccn3)CC2)cc1` [Compound 524, 2-[[1-[2-(4-methoxyphenyl)ethyl]-4-piperidinyl]methyl]-1-(2-pyrazinylmethyl)-1H-benzimidazole] reads 0.16 mg/kg; that for `COc1ccc(CCN2CCC(Cc3nc4cccnc4n3Cc3ccccn3)CC2)cc1` [Compound 234], 0.02 mg/kg.
Take `O=[N+]([O-])c1ccccc1NCCN1CCC(Cc2nc3ccccc3n2Cc2ccc(F)cc2)CC1` [Compound 366]: in assay [1], the ED50 worked out at 0.31 mg/kg.
Turning to `O=c1oc2ccccc2cc1CCN1CCC(Cc2nc3cccnc3n2Cc2ccco2)CC1` [Compound 174], the ED50 in assay [1] came out at 0.01 mg/kg.
In the case of `O=c1oc2ccccc2cc1CCN1CCC(Cc2nc3ccccc3n2Cc2ccco2)CC1` [Compound 165], the ED50 in assay [1] stood at 0.02 mg/kg.
Same read-out and setting: under `Fc1ccc(Cn2c(CC3CCN(Cc4ccccc4)CC3)nc3ccncc32)cc1` [Compound 25, 3-[(4-fluorophenyl)methyl]-2-[[1-(phenylmethyl)-4-piperidinyl]-methyl]-3H-imidazo[4,5-c]pyridine] stands 0.16 mg/kg.

The values are drawn from US4839374A, “4-((Bicyclic heterocyclyl)-methyl and -hetero)-piperidines” (Janssen Pharmaceutica, N.V., priority 1987, dated 1989).
